Measurements from publication PMC3207004 (Clinical cancer research : an official journal of the …, 2011).
One block for each compound: values may come before it.

Columns and labels:
NSCLC = conditions: cited from earlier work
[1] = tested on: cultured human retinal pigment epithelial cells (RPE); conditions: cited from earlier work
[2] = Plasma pharmacokinetics of PF-04928473 after oral PF-04929113; type: in vivo, human

SMILES: C=CCNc1c(O)cc2c(O)c1C[C@@H](C)C[C@H](OC)[C@H](O)[C@@H](C)/C=C(\C)[C@H](OC(N)=O)[C@@H](OC)/C=C\C=C(/C)C(=O)N2 [IPI-504]
- Objective response (NSCLC; 76 patients with NSCLC): 7%
- Objective response, number of patients (NSCLC; 76 patients with NSCLC): 5 patients
- Response among 3 patients with ALK rearrangements (NSCLC): 2 PRs and one prolonged SD

SMILES: C=CCNC1=C2C[C@@H](C)C[C@H](OC)[C@H](O)[C@@H](C)/C=C(\C)[C@H](OC(N)=O)[C@@H](OC)/C=C\C=C(/C)C(=O)NC(=CC1=O)C2=O [17-AAG]
- Effect on cultured human retinal pigment epithelial cells [1]: cytostaticity and cytotoxicity

SMILES: COC1=C2C[C@@H](C)C[C@H](OC)[C@H](O)[C@@H](C)/C=C(\C)[C@H](OC(N)=O)[C@@H](OC)/C=C\C=C(/C)C(=O)NC(=CC1=O)C2=O [geldanamycin]
- Effect on cultured human retinal pigment epithelial cells [1]: cytostaticity and cytotoxicity

- Clearance (CL/Fm) ([2]; high value): hepatic and extra-hepatic clearance
- Volume of distribution (Vz/Fm) ([2]; high value): extensive tissue binding
- half-life ([2]; human, plasma, oral): 480 to 900 min
- Dose linearity of pharmacokinetics ([2]; in vivo): almost linear PK
- Dose linearity of pharmacokinetics ([2]; in vivo, listed as PF 04928473): almost linear pharmacokinetics
- Absorption following oral administration ([2]; patients): rapid absorption
- Drug accumulation after multiple dosing ([2]; twice weekly): no drug accumulation
SMILES: CC1(C)CC(=O)c2c(C(F)(F)F)nn(-c3ccc(C(N)=O)c(N[C@H]4CC[C@H](O)CC4)c3)c2C1 [PF-04928473]
- Time span in which active drug was detectable in plasma ([2]; after oral PF-04929113): detectable at 20 minutes through 48 hours
- Change of half-life across dose levels ([2]; in vivo): doesn’t appear to change across different dose levels
